The values below are quoted from earlier work in patent US20250375365A1, “MOUTH RESCUE RINSE AND METHODS OF REGULATING BLOOD PRESSURE” (University of Florida Research Foundation, Inc., priority 2024, published 2025).

The conditions of data set [1]: CHX rinses, healthy subjects; some studies reported.

With `N=C(NCCCCCCNC(=N)NC(=N)Nc1ccc(Cl)cc1)NC(=N)Nc1ccc(Cl)cc1.O=C(O)[C@H](O)[C@@H](O)[C@H](O)[C@H](O)CO.O=C(O)[C@H](O)[C@@H](O)[C@H](O)[C@H](O)CO` [CHX, chlorhexidine gluconate], the “blood pressure values versus controls” value in data set [1] is listed as “higher blood pressure values”. Further, in the data set with oral microbiome (one-week CHX course), the “reduction of oral microbiome associated with oral nitrate production” value is reported as “significantly impact the reduction of oral microbiome”. Moreover, in the data set with oral microbiome (oral antiseptic mouthwash), the “bacterial species associated with oral inflammation” value was “effectively reduced bacterial species”.
